# Measurements from ChEMBL document CHEMBL1201861, “Genomics of Drug Sensitity in Cancer screening data, Wellcome Trust Sanger Institute”.
# Key:
# Test in all cases: cells
# NB13 = format: functional, cell-based, Homo sapiens;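 also: cell viability readout measuring growth inhibition of human NB13 cells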
# Description: SANGER: Inhibition of human NB13 cell growth in a cell viability assay.
# UACC-257 = format: functional, cell-based, Homo sapiens
# Description: SANGER: Inhibition of human UACC-257 cell growth in a cell viability assay.
# TE-1 = format: functional, cell-based, Homo sapiens;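 also: growth inhibition of the human TE-1 cell line, read out with a cell viability assay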
# Description: SANGER: Inhibition of human TE-1 cell growth in a cell viability assay.
# GI-1 = format: functional, cell-based, Homo sapiens;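 also: growth inhibition of human GI-1 cells, measured with a cell viability readout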
# Description: SANGER: Inhibition of human GI-1 cell growth in a cell viability assay.
# HCE-T = format: functional, cell-based, Homo sapiens;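 also: cell viability assay read-out, reporting inhibition of HCE-T cell growth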
# Description: SANGER: Inhibition of human HCE-T cell growth in a cell viability assay.
# GR-ST = format: functional, cell-based, Homo sapiens
# Description: SANGER: Inhibition of human GR-ST cell growth in a cell viability assay.
# SHP77 = format: functional, cell-based, Homo sapiens, SHP-77;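 also: growth inhibition of human SHP-77 cells measured by a cell viability assay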
# Description: SANGER: Inhibition of human SHP-77 cell growth in a cell viability assay.
# BB30-HNC = format: functional, cell-based, Homo sapiens;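 also: growth inhibition of the cultured cell line, read out by a cell viability assay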
# Description: SANGER: Inhibition of human BB30-HNC cell growth in a cell viability assay.
# KP-N-YS = format: functional, cell-based, Homo sapiens;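 also: cell viability assay measuring inhibition of cell line growth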
# Description: SANGER: Inhibition of human KP-N-YS cell growth in a cell viability assay.
# KG-1 = format: functional, cell-based, Homo sapiens;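 also: growth inhibition of KG-1 cells, read out by a cell viability assay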
# Description: SANGER: Inhibition of human KG-1 cell growth in a cell viability assay.
# DSH1 = format: functional, cell-based, Homo sapiens;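 also: growth inhibition of human DSH1 cells, measured with a cell viability readout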
# Description: SANGER: Inhibition of human DSH1 cell growth in a cell viability assay.
# MN-60 = format: functional, cell-based, Homo sapiens;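 also: growth inhibition of the MN-60 cell line, determined with a cell viability assay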
# Description: SANGER: Inhibition of human MN-60 cell growth in a cell viability assay.
# DU-4475 = format: functional, cell-based, Homo sapiens
# Description: SANGER: Inhibition of human DU-4475 cell growth in a cell viability assay.
# NCI-H1299 = format: functional, cell-based, Homo sapiens;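 also: growth inhibition of human NCI-H1299 cells, read out by a cell viability assay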
# Description: SANGER: Inhibition of human NCI-H1299 cell growth in a cell viability assay.
# GCIY = format: functional, cell-based, Homo sapiens;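 also: growth inhibition of the human GCIY cell line, read out by a cell viability assay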
# Description: SANGER: Inhibition of human GCIY cell growth in a cell viability assay.
# CW-2 = format: functional, cell-based, Homo sapiens;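 also: growth inhibition of CW-2 cells, read out by a cell viability assay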
# Description: SANGER: Inhibition of human CW-2 cell growth in a cell viability assay.
# DEL = format: functional, cell-based, Homo sapiens;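 also: growth inhibition of the human DEL cell line, read out with a cell viability assay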
# Description: SANGER: Inhibition of human DEL cell growth in a cell viability assay.
# KINGS-1 = format: functional, cell-based, Homo sapiens;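 also: cell viability assay measuring suppression of KINGS-1 cell growth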
# Description: SANGER: Inhibition of human KINGS-1 cell growth in a cell viability assay.
# L-428 = format: functional, cell-based, Homo sapiens
# Description: SANGER: Inhibition of human L-428 cell growth in a cell viability assay.
# no-10 = format: functional, cell-based, Homo sapiens;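 also: growth inhibition of no-10 cells, read out with a cell viability assay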
# Description: SANGER: Inhibition of human no-10 cell growth in a cell viability assay.
# DMS-114 = format: functional, cell-based, Homo sapiens
# OCI-AML2 = format: functional, cell-based, Homo sapiens;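 also: growth inhibition of OCI-AML2 cells, read out with a cell viability assay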
# Description: SANGER: Inhibition of human OCI-AML2 cell growth in a cell viability assay.
# IA-LM = format: functional, cell-based, Homo sapiens;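 also: cell viability assay measuring growth inhibition of human IA-LM cells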
# Description: SANGER: Inhibition of human IA-LM cell growth in a cell viability assay.
# GOTO = format: functional, cell-based, Homo sapiens;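 also: growth inhibition of GOTO cells, read out by a cell viability assay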
# Description: SANGER: Inhibition of human GOTO cell growth in a cell viability assay.
# SK-MEL-2 = format: functional, cell-based, Homo sapiens;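 also: growth inhibition of human SK-MEL-2 cells measured with a cell viability assay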
# Description: SANGER: Inhibition of human SK-MEL-2 cell growth in a cell viability assay.
# KARPAS-45 = format: functional, cell-based, Homo sapiens;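 also: inhibition of cell line growth, read out through a viability assay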
# Description: SANGER: Inhibition of human KARPAS-45 cell growth in a cell viability assay.
# MLMA = format: functional, cell-based, Homo sapiens;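 also: growth inhibition of MLMA cells (human), determined through a cell viability readout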
# Description: SANGER: Inhibition of human MLMA cell growth in a cell viability assay.
# A3-KAW = format: functional, cell-based, Homo sapiens;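 also: growth inhibition of human A3-KAW cells, read out with a cell viability assay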
# Description: SANGER: Inhibition of human A3-KAW cell growth in a cell viability assay.
# SK-NEP-1 = format: functional, cell-based, Homo sapiens;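 also: growth inhibition of human SK-NEP-1 cells, read out by a cell viability assay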
# Description: SANGER: Inhibition of human SK-NEP-1 cell growth in a cell viability assay.
# EW-1 = format: functional, cell-based, Homo sapiens
# Description: SANGER: Inhibition of human EW-1 cell growth in a cell viability assay.
# NCI-H82 = format: functional, cell-based, Homo sapiens;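 also: growth inhibition of NCI-H82 cells, measured with a cell viability readout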
# Description: SANGER: Inhibition of human NCI-H82 cell growth in a cell viability assay.
# SBC-1 = format: functional, cell-based, Homo sapiens;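 also: cell viability assay measuring growth inhibition of the SBC-1 cell line, IC50 being the concentration that halves growth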
# Description: SANGER: Inhibition of human SBC-1 cell growth in a cell viability assay.
# U-266 = format: functional, cell-based, Homo sapiens
# Description: SANGER: Inhibition of human U-266 cell growth in a cell viability assay.
# MZ1-PC = format: functional, cell-based, Homo sapiens;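 also: cell viability assay measuring growth inhibition of human MZ1-PC cells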
# Description: SANGER: Inhibition of human MZ1-PC cell growth in a cell viability assay.
# A498 = format: functional, cell-based, Homo sapiens;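 also: growth inhibition of human A498 cells, read out with a cell viability assay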
# Description: SANGER: Inhibition of human A498 cell growth in a cell viability assay.
# TGBC1TKB = format: functional, cell-based, Homo sapiens;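 also: growth inhibition of TGBC1TKB cells, read out by a cell viability assay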
# Description: SANGER: Inhibition of human TGBC1TKB cell growth in a cell viability assay.
# NCI-H1650 = format: functional, cell-based, Homo sapiens;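 also: growth inhibition of human NCI-H1650 cells measured by a cell viability assay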
# Description: SANGER: Inhibition of human NCI-H1650 cell growth in a cell viability assay.
# LAMA-84 = format: functional, cell-based, Homo sapiens;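 also: growth inhibition of LAMA-84 cells, read out with a cell viability assay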
# Description: SANGER: Inhibition of human LAMA-84 cell growth in a cell viability assay.
# NCI-H510A = format: functional, cell-based, Homo sapiens;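 also: growth inhibition of NCI-H510A cells, read out with a cell viability assay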
# Description: SANGER: Inhibition of human NCI-H510A cell growth in a cell viability assay.
# QIMR-WIL = format: functional, cell-based, Homo sapiens;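 also: growth inhibition of QIMR-WIL cells, read out with a cell viability assay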
# Description: SANGER: Inhibition of human QIMR-WIL cell growth in a cell viability assay.
# Lu-65 = format: functional, cell-based, Homo sapiens;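 also: growth inhibition of Lu-65 cancer cells, read out by a cell viability assay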
# Description: SANGER: Inhibition of human LU-65 cell growth in a cell viability assay.
# Ramos-2G6-4C10 = format: functional, cell-based, Homo sapiens;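 also: growth inhibition of the cell line, measured by a cell viability read-out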
# Description: SANGER: Inhibition of human Ramos-2G6-4C10 cell growth in a cell viability assay.
# NCI-H209 = format: functional, cell-based, Homo sapiens;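 also: growth inhibition of human NCI-H209 cells, measured by a cell viability assay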
# Description: SANGER: Inhibition of human NCI-H209 cell growth in a cell viability assay.
# LOX IMVI = format: functional, cell-based, Homo sapiens
# Description: SANGER: Inhibition of human LOXIMVI cell growth in a cell viability assay.
# GB-1 = format: functional, cell-based, Homo sapiens;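 also: growth of GB-1 cells judged by a viability assay, IC50 marks the concentration inhibiting growth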
# Description: SANGER: Inhibition of human GB-1 cell growth in a cell viability assay.
# OVCAR-4 = format: functional, cell-based, Homo sapiens;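 also: growth inhibition of human OVCAR-4 cells, measured with a cell viability assay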
# Description: SANGER: Inhibition of human OVCAR-4 cell growth in a cell viability assay.
# SF-539 = format: functional, cell-based, Homo sapiens;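 also: Read-out is a cell viability assay, with IC50 reflecting inhibition of cell growth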
# Description: SANGER: Inhibition of human SF539 cell growth in a cell viability assay.
# NH-12 = format: functional, cell-based, Homo sapiens;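 also: growth inhibition of NH-12 cells, read out with a cell viability assay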
# Description: SANGER: Inhibition of human NH-12 cell growth in a cell viability assay.
# EW-13 = format: functional, cell-based, Homo sapiens;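 also: growth inhibition of EW-13 cells, read out with a cell viability assay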
# Description: SANGER: Inhibition of human EW-13 cell growth in a cell viability assay.
compound,measurement,setting,value
COc1cccc2c1C(=O)c1c(O)c3c(c(O)c1C2=O)C[C@@](O)(C(=O)CO)C[C@@H]3O[C@H]1C[C@H](N)[C@H](O)[C@H](C)O1 [DOXORUBICIN],IC50,"NB13; Homo sapiens, NB13",0.135 µM
same,IC50,"UACC-257; Homo sapiens, UACC-257",0.362 µM
same,IC50,"TE-1; Homo sapiens, TE-1",0.0764 µM
same,IC50,"GI-1; Homo sapiens, GI-1",0.0697 µM
same,IC50,"HCE-T; Homo sapiens, HCE-T",0.165 µM
same,IC50,"GR-ST; Homo sapiens, GR-ST",0.255 µM
same,IC50,"SHP77; Homo sapiens, SHP77",> 1.02 µM
same,IC50,"BB30-HNC; Homo sapiens, BB30-HNC",0.0298 µM
same,IC50,"KP-N-YS; Homo sapiens, KP-N-YS",0.218 µM
same,IC50,"KG-1; Homo sapiens, KG-1",0.362 µM
same,IC50,"DSH1; Homo sapiens, DSH1",0.373 µM
same,IC50,"MN-60; Homo sapiens, MN-60",0.605 µM
same,IC50,"DU-4475; Homo sapiens, DU-4475",0.0121 µM
same,IC50,"NCI-H1299; Homo sapiens, NCI-H1299",0.0376 µM
same,IC50,"GCIY; Homo sapiens, GCIY",0.725 µM
same,IC50,"CW-2; Homo sapiens, CW-2",> 1.02 µM
same,IC50,"DEL; Homo sapiens, DEL",0.0384 µM
same,IC50,"KINGS-1; Homo sapiens, KINGS-1",1.02 µM
same,IC50,"L-428; Homo sapiens, L-428",0.791 µM
same,IC50,no-10; Homo sapiens,0.16 µM
same,IC50,"DMS-114; Homo sapiens, DMS-114",0.396 µM
same,IC50,"OCI-AML2; Homo sapiens, OCI-AML2",0.045 µM
same,IC50,"IA-LM; Homo sapiens, IA-LM",0.0635 µM
same,IC50,"GOTO; Homo sapiens, GOTO",0.286 µM
same,IC50,"SK-MEL-2; Homo sapiens, SK-MEL-2",0.23 µM
same,IC50,"KARPAS-45; Homo sapiens, KARPAS-45",> 1.02 µM
same,IC50,"MLMA; Homo sapiens, MLMA",0.122 µM
same,IC50,"A3-KAW; Homo sapiens, A3-KAW",0.0401 µM
same,IC50,"SK-NEP-1; Homo sapiens, SK-NEP-1",0.116 µM
same,IC50,"EW-1; Homo sapiens, EW-1",0.0613 µM
same,IC50,"NCI-H82; Homo sapiens, NCI-H82",> 1.02 µM
same,IC50,"SBC-1; Homo sapiens, SBC-1",0.156 µM
same,IC50,"U-266; Homo sapiens, U-266",0.451 µM
same,IC50,"MZ1-PC; Homo sapiens, MZ1-PC",0.0238 µM
same,IC50,"A498; Homo sapiens, A498",> 1.02 µM
same,IC50,"TGBC1TKB; Homo sapiens, TGBC1TKB",> 1.02 µM
same,IC50,"NCI-H1650; Homo sapiens, NCI-H1650",0.0786 µM
same,IC50,"LAMA-84; Homo sapiens, LAMA-84",0.437 µM
same,IC50,"NCI-H510A; Homo sapiens, NCI-H510A",0.36 µM
same,IC50,"QIMR-WIL; Homo sapiens, QIMR-WIL",0.0207 µM
same,IC50,"Lu-65; Homo sapiens, Lu-65",0.346 µM
same,IC50,"Ramos-2G6-4C10; Homo sapiens, Ramos-2G6-4C10",0.295 µM
same,IC50,"NCI-H209; Homo sapiens, NCI-H209",0.0487 µM
same,IC50,"LOX IMVI; Homo sapiens, LOX IMVI",0.389 µM
same,IC50,"GB-1; Homo sapiens, GB-1",0.213 µM
same,IC50,"OVCAR-4; Homo sapiens, OVCAR-4",0.157 µM
same,IC50,"SF-539; Homo sapiens, SF-539",0.122 µM
same,IC50,"NH-12; Homo sapiens, NH-12",0.076 µM
same,IC50,"EW-13; Homo sapiens, EW-13",0.00963 µM
BLEOMYCIN,IC50,NB13; nb13,36.7 µM
same,IC50,UACC-257; uacc-257,234 µM
same,IC50,TE-1; te-1,6.43 µM
same,IC50,GI-1; gi-1,1.2 µM
same,IC50,HCE-T; hce-t,2.83 µM
same,IC50,GR-ST; gr-st,23.1 µM
same,IC50,SHP77; shp-77,142 µM
same,IC50,BB30-HNC; bb30-hnc,0.0163 µM
same,IC50,KP-N-YS; kp-n-ys,30.3 µM
same,IC50,KG-1; kg-1,0.131 µM
same,IC50,DSH1; dsh1,155 µM
same,IC50,MN-60; mn-60,4.05 µM
same,IC50,DU-4475; du-4475,1.27 µM
same,IC50,NCI-H1299; nci-h1299,0.108 µM
same,IC50,GCIY; gciy,12.8 µM
same,IC50,CW-2; cw-2,564 µM
same,IC50,DEL; del,0.48 µM
same,IC50,KINGS-1; kings-1,1270 µM
same,IC50,L-428; l-428,52.3 µM
same,IC50,no-10,27.1 µM
same,IC50,DMS-114; dms-114,6.79 µM
same,IC50,OCI-AML2; oci-aml2,2.26 µM
same,IC50,IA-LM; ia-lm,3.4 µM
same,IC50,GOTO; goto,0.55 µM
same,IC50,SK-MEL-2; sk-mel-2,8.49 µM
same,IC50,KARPAS-45; karpas-45,213 µM
same,IC50,MLMA; mlma,0.87 µM
same,IC50,A3-KAW; a3-kaw,0.717 µM
same,IC50,SK-NEP-1; sk-nep-1,31.9 µM
same,IC50,EW-1; ew-1,1.82 µM
same,IC50,NCI-H82; nci-h82,225 µM
same,IC50,SBC-1; sbc-1,370 µM
same,IC50,U-266; u-266,282 µM
same,IC50,MZ1-PC; mz1-pc,0.224 µM
same,IC50,A498; a498,1020 µM
same,IC50,TGBC1TKB; tgbc1tkb,74.1 µM
same,IC50,NCI-H1650; nci-h1650,0.499 µM
same,IC50,LAMA-84; lama-84,4.29 µM
same,IC50,NCI-H510A; nci-h510a,1.09 µM
same,IC50,QIMR-WIL; qimr-wil,0.637 µM
same,IC50,Lu-65; lu-65,19.5 µM
same,IC50,Ramos-2G6-4C10; ramos-2g6-4c10,9.88 µM
same,IC50,NCI-H209; nci-h209,34.3 µM
same,IC50,LOX IMVI; lox imvi,0.452 µM
same,IC50,GB-1; gb-1,0.39 µM
same,IC50,OVCAR-4; ovcar-4,4.41 µM
same,IC50,SF-539; sf-539,0.393 µM
same,IC50,NH-12; nh-12,2.21 µM
same,IC50,EW-13; ew-13,0.292 µM
O=C(O)c1ccc(-c2c[nH]c3ncc(-c4ccccc4)cc23)cc1C1CCCC1 [GSK-650394],IC50,"NB13; Homo sapiens, NB13",> 16 µM
same,IC50,"UACC-257; Homo sapiens, UACC-257",> 16 µM
same,IC50,"TE-1; Homo sapiens, TE-1",> 16 µM
same,IC50,"GI-1; Homo sapiens, GI-1",> 16 µM
same,IC50,"HCE-T; Homo sapiens, HCE-T",> 16 µM
same,IC50,"GR-ST; Homo sapiens, GR-ST",> 16 µM
same,IC50,"SHP77; Homo sapiens, SHP77",> 16 µM
same,IC50,"BB30-HNC; Homo sapiens, BB30-HNC",2.33 µM
same,IC50,"KP-N-YS; Homo sapiens, KP-N-YS",4.39 µM
same,IC50,"KG-1; Homo sapiens, KG-1",> 16 µM
same,IC50,"DSH1; Homo sapiens, DSH1",> 16 µM
same,IC50,"MN-60; Homo sapiens, MN-60",> 16 µM
same,IC50,"DU-4475; Homo sapiens, DU-4475",> 16 µM
same,IC50,"NCI-H1299; Homo sapiens, NCI-H1299",5.99 µM
same,IC50,"GCIY; Homo sapiens, GCIY",> 16 µM
same,IC50,"CW-2; Homo sapiens, CW-2",> 16 µM
same,IC50,"DEL; Homo sapiens, DEL",5.11 µM
same,IC50,"KINGS-1; Homo sapiens, KINGS-1",> 16 µM
same,IC50,"L-428; Homo sapiens, L-428",> 16 µM
same,IC50,no-10; Homo sapiens,> 16 µM
same,IC50,"DMS-114; Homo sapiens, DMS-114",> 16 µM
same,IC50,"OCI-AML2; Homo sapiens, OCI-AML2",> 16 µM
same,IC50,"IA-LM; Homo sapiens, IA-LM",4.12 µM
same,IC50,"GOTO; Homo sapiens, GOTO",> 16 µM
same,IC50,"SK-MEL-2; Homo sapiens, SK-MEL-2",> 16 µM
same,IC50,"KARPAS-45; Homo sapiens, KARPAS-45",> 16 µM
same,IC50,"MLMA; Homo sapiens, MLMA",> 16 µM
same,IC50,"A3-KAW; Homo sapiens, A3-KAW",> 16 µM
same,IC50,"SK-NEP-1; Homo sapiens, SK-NEP-1",> 16 µM
same,IC50,"EW-1; Homo sapiens, EW-1",> 16 µM
same,IC50,"NCI-H82; Homo sapiens, NCI-H82",> 16 µM
same,IC50,"SBC-1; Homo sapiens, SBC-1",> 16 µM
same,IC50,"U-266; Homo sapiens, U-266",> 16 µM
same,IC50,"MZ1-PC; Homo sapiens, MZ1-PC",> 16 µM
same,IC50,"A498; Homo sapiens, A498",> 16 µM
same,IC50,"TGBC1TKB; Homo sapiens, TGBC1TKB",> 16 µM
same,IC50,"NCI-H1650; Homo sapiens, NCI-H1650",> 16 µM
same,IC50,"LAMA-84; Homo sapiens, LAMA-84",10.2 µM
same,IC50,"NCI-H510A; Homo sapiens, NCI-H510A",> 16 µM
same,IC50,"QIMR-WIL; Homo sapiens, QIMR-WIL",8.8 µM
same,IC50,"Lu-65; Homo sapiens, Lu-65",> 16 µM
same,IC50,"Ramos-2G6-4C10; Homo sapiens, Ramos-2G6-4C10",> 16 µM
same,IC50,"NCI-H209; Homo sapiens, NCI-H209",> 16 µM
same,IC50,"LOX IMVI; Homo sapiens, LOX IMVI",> 16 µM
same,IC50,"GB-1; Homo sapiens, GB-1",5.96 µM
same,IC50,"OVCAR-4; Homo sapiens, OVCAR-4",> 16 µM
same,IC50,"SF-539; Homo sapiens, SF-539",> 16 µM
same,IC50,"NH-12; Homo sapiens, NH-12",12.3 µM
same,IC50,"EW-13; Homo sapiens, EW-13",3.02 µM
